Laboratory results reported in US20220087996A1, “Histone acetylase p300 inhibitor and use thereof” (HINOVA PHARMACEUTICALS INC., priority 2018, published 2022).
Read-outs that look alike come from different tables or passages of the source.

Columns and labels:
MLMA = experiment: Inhibition of proliferation of MLMA cells; type: cell-based; settings: Lymphoma cell line MLMA; read-out: IC50 against MLMA
Protocol: (§1) 1) CWR22RV1 cells were subcultured in cell culture medium, and the cells in good growth condition were seeded in a 96-well plate, 80 μL for each well, and the cell number in each well was 1500. The plate was incubated overnight in a 37° C., 5% CO2 cell incubator. 2) The drug was prepared as 30 mM stock solution with dimethyl sulfoxide (DMSO). Prior to use, the stock solution was diluted 3 times with DMSO, and then further diluted as 3-fold gradient to obtain 9 concentration gradients. Then, each concentration of compound was diluted 200 times with the culture solution (ensuring that the DMSO concentration in the culture system was 0.1%), and two replicate wells were set for each concentration. 20 μL of diluted compound solution was added to the cell culture well (with final concentrations of 10 μM, 3.3 μM. 1.1 μM . . . ), and the plate was gently shaken to mix. In addition, 3 negative control wells containing only cells and 3 blank control wells containing only culture medium were included (6 wells were each added 20 μL DMSO diluted 200 times with culture medium). 2. Result detection: (1) After culturing for 6 days, 10 μL CCK-8 was added to each well, and the plate was continually cultured in a 37° C., 5% CO2 cell incubator for 2.5 h. (2) The absorbance (OD value) was detected at 450 nm using a multifunctional microplate reader. (3) The data were analyzed by Dose-response-inhibition equation in the software GraphPad Prism6, and the IC50 value was obtained.
(§2) Using the same method as Experimental example 2, CWR22RV1 cells were replaced with tumor cells in Table 3, and the IC50 (nM) of the compound according to the present invention against the activity of these tumor cells was tested and calculated.

HCC1428 = experiment: Inhibition of proliferation of HCC1428 cells; type: cell-based; settings: Homo sapiens; Breast cancer cell line HCC1428; read-out: IC50 against HCC1428
Protocol: as §1, §2

OPM-2 = experiment: Inhibition of proliferation of OPM-2 cells; type: cell-based; settings: Homo sapiens; Multiple myeloma cell line OPM-2; read-out: IC50 against OPM-2
Protocol: as §1, §2

KMS-11 = experiment: Inhibition of proliferation of KMS-11 cells; type: cell-based; settings: Homo sapiens; Multiple myeloma cell line KMS-11; read-out: IC50 against KMS-11
Protocol: as §1, §2

MAVER-1 = experiment: Inhibition of proliferation of MAVER-1 cells; type: cell-based; settings: Homo sapiens, Maver1; Lymphoma cell line MAVER-1; read-out: IC50 against MAVER-1
Protocol: as §1, §2

MOLT-4 = experiment: Inhibition of proliferation of MOLT-4 cells; type: cell-based; settings: Homo sapiens; Leukemia cell line MOLT-4; read-out: IC50 against MOLT-4
Protocol: as §1, §2

KARPAS-422 = experiment: Inhibition of proliferation of KARPAS-422 cells; type: cell-based; settings: Homo sapiens; Lymphoma cell line KARPAS-422; read-out: IC50 against KARPAS-422
Protocol: as §1, §2

KMS-12-PE = experiment: Inhibition of proliferation of KMS-12-PE cells; type: cell-based; settings: Homo sapiens; Lymphoma cell line KMS-12-PE; read-out: IC50 against KMS-12-PE
Protocol: as §1, §2

MM.1S = experiment: Inhibition of proliferation of MM.1S cells; type: cell-based; settings: Homo sapiens, MM1.S; Multiple myeloma cell line MM.1S; read-out: IC50 against MM.1S
Protocol: as §1, §2

NCI-H929 = experiment: Inhibition of proliferation of NCI-H929 cells; type: cell-based; settings: Homo sapiens; Multiple myeloma cell line NCI-H929; read-out: IC50 against NCI-H929
Protocol: as §1, §2

LNCAP-AR = experiment: Inhibition of proliferation of LNCAP-AR cells; type: cell-based; settings: Prostate cancer cell line LNCAP-AR; read-out: IC50 against LNCAP-AR
Protocol: as §1, §2

CWR22RV1 cells = experiment: Compound in combination with CDK4/6 inhibitor palbociclib on proliferation of CWR22RV1 cells; type: cell-based, human; settings: for IC50: Homo sapiens, read-out: IC50 against the activity of CWR22RV1 cells
Protocol: The IC50 values (nM) of the compound according to the present invention, palbociclib, and the combination of the compound according to the present invention and palbociclib against CWR22RV1 cell proliferation were tested and calculated, and the detailed procedures were as follows:
1) CWR22RV1 cells were subcultured in cell culture medium, and the cells in good growth condition were seeded in a 96-well plate, 60 μL for each well, and the cell number in each well was 2000. The plate was incubated overnight in a 37° C., 5% CO2 cell incubator. 2) The drug was prepared as 10 mM stock solution with dimethyl sulfoxide (DMSO). Prior to use, the stock solution was diluted 3 times with DMSO, and then further diluted as 3-fold gradient to obtain 9 concentration gradients. Then, each concentration of compound was diluted 200 times with the culture solution (ensuring that the DMSO concentration in the culture system was 0.1%), and two replicate wells were set for each concentration. 20 μL of diluted compound solution was added to the cell culture well (with final concentrations of 10 μM, 3.3 μM, 1.1 μM . . . ). Palbociclib was diluted with culture medium to 500 nM, 150 nM, 50 nM, 5 nM, and 20 μL diluted compound solution was added to the corresponding cell culture wells (with a final concentration of 100 nM, 30 nM, 10 nM, 1 nM). The plate was gently shaken to mix. In addition, 3 negative control wells containing only cells and 3 blank control wells containing only culture medium were included (6 wells were each added 20 μL DMSO diluted 200 times with culture medium).
(1) After culturing for 6 days, 10 μL CCK-8 was added to each well, and the plate was continually cultured in a 37° C., 5% CO2 cell incubator for 2.5 h. (2) The absorbance (OD value) was detected at 450 nm using a multifunctional microplate reader. (3) The data were analyzed by Dose-response-inhibition equation in the software GraphPad Prism6, and the IC50 value was obtained.

KMS-20 = experiment: Inhibition of proliferation of KMS-20 cells; type: cell-based; settings: Multiple myeloma cell line KMS-20; read-out: IC50 against KMS-20
Protocol: as §1, §2

TALL-1 = experiment: Inhibition of proliferation of TALL-1 cells; type: cell-based; settings: Homo sapiens; Leukemia cell line TALL-1; read-out: IC50 against TALL-1
Protocol: as §1, §2

ATN-1 = experiment: Inhibition of proliferation of ATN-1 cells; type: cell-based; settings: Homo sapiens; Leukemia cell line ATN-1; read-out: IC50 against ATN-1
Protocol: as §1, §2

EVSA-T = experiment: Inhibition of proliferation of EVSA-T cells; type: cell-based; settings: Homo sapiens; Breast cancer cell line EVSA-T; read-out: IC50 against EVSA-T
Protocol: as §1, §2

MT-2 = experiment: Inhibition of proliferation of MT-2 cells; type: cell-based; settings: Homo sapiens, MT2; Leukemia cell line MT-2; read-out: IC50 against MT-2
Protocol: as §1, §2

| IC50 (HCC1428) [nM] | IC50 (MOLT-4) [nM] | IC50 (KARPAS-422) [nM] | IC50 (MM.1S) [nM] | IC50 (NCI-H929) [nM] | IC50 (LNCAP-AR) [nM] | Structure (SMILES) | IC50 (MLMA) [nM] | IC50 (OPM-2) [nM] | IC50 (KMS-11) [nM] | IC50 (MAVER-1) [nM] | IC50 (KMS-12-PE) [nM] | IC50 (KMS-20) [nM] | IC50 (TALL-1) [nM] | IC50 (ATN-1) [nM] | IC50 (EVSA-T) [nM] | IC50 (MT-2) [nM] | further results |
| --- | --- | --- | --- | --- | --- | --- | --- | --- | --- | --- | --- | --- | --- | --- | --- | --- | --- |
| ≤ 500 | ≤ 500 | ≤ 500 | 500 to 2000 | ≤ 500 | ≤ 500 | CNC(=O)Nc1ccc2c(c1)CC[C@@]21OC(=O)N(CC(=O)N2C(C)CC[C@H]2c2cc(F)c(F)c(F)c2)C1=O (stereo in doubt) [Example 205, 1-((R)-3′-(2-((2S,5R)-2-(3,4,5-trifluorophenyl)-5-methylpyrrolidin-1-yl)-2-oxoethyl)-2′,4′-dioxo-2,3-dihydrospiro[indene-1,5′-oxazolidine]-5-yl)-3-methylurea] | ≤ 500 | ≤ 500 | ≤ 500 | ≤ 500 | 500 to 2000 | ≤ 500 | ≤ 500 | ≤ 500 | 500 to 2000 | 500 to 2000 | IC50 (CWR22RV1 cells; CWR22Rv1, in combination with 1 nM palbociclib): 130 nM; IC50 (CWR22RV1 cells; CWR22Rv1, in combination with 10 nM palbociclib): 110 nM; IC50 (CWR22RV1 cells; CWR22Rv1, in combination with 30 nM palbociclib): 40 nM; IC50 (CWR22RV1 cells; CWR22Rv1, in combination with 100 nM palbociclib): < 1 nM; IC50 (CWR22RV1 cells; CWR22Rv1, single agent): 120 nM; inhibitory activity on CWR22RV1 cells when combined with palbociclib, versus either agent alone (CWR22RV1 cells; combination with CDK4/6 inhibitor palbociclib): much higher |
| ≤ 500 | ≤ 500 | ≤ 500 | 500 to 2000 | ≤ 500 | ≤ 500 | CNC(=O)Nc1ccc2c(c1)CC[C@@]21OC(=O)N(CC(=O)N2[C@@H](C)CC[C@H]2c2ccc(F)c(F)c2)C1=O [Example 201] | ≤ 500 | ≤ 500 | ≤ 500 | ≤ 500 | 500 to 2000 | ≤ 500 | ≤ 500 | ≤ 500 | 500 to 2000 | 500 to 2000 | – |
| ≤ 500 | ≤ 500 | ≤ 500 | 500 to 2000 | ≤ 500 | ≤ 500 | CNC(=O)Nc1cc2c(cc1F)[C@@]1(CC2)OC(=O)N(CC(=O)N2[C@@H](C)CC[C@H]2c2ccc(F)c(F)c2)C1=O [Example 389, 1-((R)-3′-(2-((2S,5S)-2-(3,4-difluorophenyl)-5-methylpyrrolidin-1-yl)-2-oxoethyl)-6-fluoro-2′,4′-dioxo-2,3-dihydrospiro[indene-1,5′-oxazolidine]-5-yl)-3-methylurea] | ≤ 500 | ≤ 500 | ≤ 500 | ≤ 500 | 500 to 2000 | ≤ 500 | ≤ 500 | ≤ 500 | 500 to 2000 | ≤ 500 | – |
